{"source": "paper PMC3303072", "about": "(Cell Biology and Toxicology, 2012)", "key": {"[1]": {"system": "HepG2 cells", "type": "cell-based, human", "settings": "control (DMSO) vs induced, 24 h; for Number of differentially expressed probes, Down: fold change <-2, 1,250 probes; for Number of differentially expressed probes, Up: fold change >2, 1,250 probes; for Number of differentially expressed probes, Either: fold change >2 or <-2, 1,250 probes"}, "[2]": {"system": "CYP1A2", "settings": "human"}, "[3]": {"system": "HepaRG cells", "type": "cell-based, human", "settings": "control (DMSO) vs induced, 24 h; for Number of differentially expressed probes, Down: fold change <-2, 1,250 probes; for Number of differentially expressed probes, Up: fold change >2, 1,250 probes; for Number of differentially expressed probes, Either: fold change >2 or <-2, 1,250 probes"}, "[4]": {"system": "primary human hepatocytes", "type": "cell-based", "settings": "control (DMSO) vs induced, 24 h, 1,250 probes; for Number of differentially expressed probes, Down: fold change <-2; for Number of differentially expressed probes, Up: fold change >2; for Number of differentially expressed probes, Either: fold change >2 or <-2"}, "[5]": {"system": "CYP3A4", "settings": "human"}, "[6]": {"system": "CYP2B6"}, "[7]": {"assay": "in vitro", "settings": "human, Cytotoxicity class by LC50"}, "[8]": {"system": "HepG2 cells", "settings": "xCELLigence cell index, LC50 after 48 and 72 h"}, "[9]": {"system": "HepaRG cells", "settings": "xCELLigence cell index, LC50 after 48 and 72 h"}, "[10]": {"system": "cryopreserved human hepatocytes", "settings": "for Cytotoxicity class by LC50: cryopreserved HH (3 donors), xCELLigence cell index, LC50 after 48 and 72 h; for Cytotoxicity (in words): cryopreserved HH compared with HepG2 and HepaRG, xCELLigence"}, "[11]": {"settings": "read-out: Cmax (the maximum concentration of a drug in the blood after dosing); in vivo studies; cited from earlier work"}, "[12]": {"settings": "100 mM stock in 100% DMSO; a 50 mM stock was prepared instead"}, "[13]": {"assay": "in vitro", "settings": "human, Cytotoxicity class by LC50", "remark": "listed apart in the source"}, "[14]": {"assay": "in vitro", "settings": "human, Cytotoxicity class by LC50", "remark": "listed apart in the source"}}, "note": "Read-outs that look alike come from different tables or passages of the source.", "data": [{"compound": "O=c1cc(-c2ccccc2)oc2ccc3ccccc3c12", "note": "[BNF, beta-naphthoflavone]", "values": [{"measurement": "Number of differentially expressed probes, Down", "setting": "[1]", "value": 61}, {"measurement": "Number of differentially expressed probes, Up", "setting": "[1]", "value": 31}, {"measurement": "Number of differentially expressed probes, Either", "setting": "[1]", "value": 92}, {"measurement": "Fold increase in CYP1A2 activity", "setting": "[2]", "value": 9.1, "unit": "fold"}, {"measurement": "Number of differentially expressed probes, Down", "setting": "[3]", "value": 25}, {"measurement": "Number of differentially expressed probes, Up", "setting": "[3]", "value": 106}, {"measurement": "Number of differentially expressed probes, Either", "setting": "[3]", "value": 131}, {"measurement": "Number of differentially expressed probes, Down", "setting": "[4]; HH1", "value": 50}, {"measurement": "Number of differentially expressed probes, Up", "setting": "[4]; HH1", "value": 74}, {"measurement": "Number of differentially expressed probes, Either", "setting": "[4]; HH1", "value": 124}, {"measurement": "Number of differentially expressed probes, Down", "setting": "[4]; HH2", "value": 81}, {"measurement": "Number of differentially expressed probes, Up", "setting": "[4]; HH2", "value": 64}, {"measurement": "Number of differentially expressed probes, Either", "setting": "[4]; HH2", "value": 145}, {"measurement": "Number of differentially expressed probes, Down", "setting": "[4]; HH3", "value": 35}, {"measurement": "Number of differentially expressed probes, Up", "setting": "[4]; HH3", "value": 51}, {"measurement": "Number of differentially expressed probes, Either", "setting": "[4]; HH3", "value": 86}]}, {"compound": "CCC1(c2ccccc2)C(=O)NC(=O)NC1=O", "note": "[PB, phenobarbital]", "values": [{"measurement": "Number of differentially expressed probes, Down", "setting": "[1]", "value": 60}, {"measurement": "Number of differentially expressed probes, Up", "setting": "[1]", "value": 17}, {"measurement": "Number of differentially expressed probes, Either", "setting": "[1]", "value": 77}, {"measurement": "Fold increase in CYP3A4 activity", "setting": "[5]", "value": 36.6, "unit": "times"}, {"measurement": "Effect on CYP2B6 activity", "setting": "[6]", "value": "did not have any effect"}, {"measurement": "Number of differentially expressed probes, Down", "setting": "[3]", "value": 25}, {"measurement": "Number of differentially expressed probes, Up", "setting": "[3]", "value": 35}, {"measurement": "Number of differentially expressed probes, Either", "setting": "[3]", "value": 60}, {"measurement": "Number of differentially expressed probes, Down", "setting": "[4]; HH1", "value": 44}, {"measurement": "Number of differentially expressed probes, Up", "setting": "[4]; HH1", "value": 46}, {"measurement": "Number of differentially expressed probes, Either", "setting": "[4]; HH1", "value": 90}, {"measurement": "Number of differentially expressed probes, Down", "setting": "[4]; HH2", "value": 121}, {"measurement": "Number of differentially expressed probes, Up", "setting": "[4]; HH2", "value": 39}, {"measurement": "Number of differentially expressed probes, Either", "setting": "[4]; HH2", "value": 160}, {"measurement": "Number of differentially expressed probes, Down", "setting": "[4]; HH3", "value": 29}, {"measurement": "Number of differentially expressed probes, Up", "setting": "[4]; HH3", "value": 76}, {"measurement": "Number of differentially expressed probes, Either", "setting": "[4]; HH3", "value": 105}]}, {"compound": "CO[C@H]1/C=C/O[C@@]2(C)Oc3c(C)c(O)c4c(O)c(c(/C=N/N5CCN(C)CC5)c(O)c4c3C2=O)NC(=O)/C(C)=C\\C=C\\[C@H](C)[C@H](O)[C@@H](C)[C@@H](O)[C@@H](C)[C@H](OC(C)=O)[C@@H]1C", "note": "[RIF, rifampicin]", "values": [{"measurement": "Number of differentially expressed probes, Down", "setting": "[1]", "value": 22}, {"measurement": "Number of differentially expressed probes, Up", "setting": "[1]", "value": 27}, {"measurement": "Number of differentially expressed probes, Either", "setting": "[1]", "value": 49}, {"measurement": "Number of differentially expressed probes, Down", "setting": "[3]", "value": 22}, {"measurement": "Number of differentially expressed probes, Up", "setting": "[3]", "value": 41}, {"measurement": "Number of differentially expressed probes, Either", "setting": "[3]", "value": 63}, {"measurement": "Number of differentially expressed probes, Down", "setting": "[4]; HH1", "value": 61}, {"measurement": "Number of differentially expressed probes, Up", "setting": "[4]; HH1", "value": 26}, {"measurement": "Number of differentially expressed probes, Either", "setting": "[4]; HH1", "value": 87}, {"measurement": "Number of differentially expressed probes, Down", "setting": "[4]; HH2", "value": 49}, {"measurement": "Number of differentially expressed probes, Up", "setting": "[4]; HH2", "value": 39}, {"measurement": "Number of differentially expressed probes, Either", "setting": "[4]; HH2", "value": 88}, {"measurement": "Number of differentially expressed probes, Down", "setting": "[4]; HH3", "value": 22}, {"measurement": "Number of differentially expressed probes, Up", "setting": "[4]; HH3", "value": 59}, {"measurement": "Number of differentially expressed probes, Either", "setting": "[4]; HH3", "value": 81}]}, {"compound": "CCCCc1oc2ccccc2c1C(=O)c1cc(I)c(OCCN(CC)CC)c(I)c1", "note": "[amiodarone]", "values": [{"measurement": "CC50", "setting": "[7]", "value": "< 10", "unit": "µM"}]}, {"compound": "CC(=O)Oc1ccccc1C(=O)O", "note": "[aspirin]", "values": [{"measurement": "Cytotoxicity class by LC50", "setting": "[8]", "value": "non cytotoxic"}, {"measurement": "Cytotoxicity class by LC50", "setting": "[9]", "value": "non cytotoxic"}, {"measurement": "Cytotoxicity class by LC50", "setting": "[10]", "value": "non cytotoxic"}]}, {"compound": "CCOC(=O)C(C)(C)Oc1ccc(Cl)cc1", "note": "[clofibrate]", "values": [{"measurement": "Cytotoxicity class by LC50", "setting": "[8]", "value": "non cytotoxic"}, {"measurement": "Cytotoxicity class by LC50", "setting": "[9]", "value": "non cytotoxic"}, {"measurement": "Cytotoxicity class by LC50", "setting": "[10]", "value": "non cytotoxic"}]}, {"compound": "C#C[C@]1(O)CC[C@H]2[C@@H]3CCC4=Cc5oncc5C[C@]4(C)[C@H]3CC[C@@]21C", "note": "[danazol]", "values": [{"measurement": "Cmax", "setting": "[11]", "value": 160, "unit": "nM"}]}, {"compound": "CC(C)C(=O)Nc1ccc([N+](=O)[O-])c(C(F)(F)F)c1", "note": "[flutamide]", "values": [{"measurement": "Cytotoxicity (in words)", "setting": "[10]", "value": "induced cytotoxicity in HH only"}]}, {"compound": "CC(=O)N1CCN(c2ccc(OCC3COC(Cn4ccnc4)(c4ccc(Cl)cc4Cl)O3)cc2)CC1", "note": "(stereo not shown) [ketoconazole]", "values": [{"measurement": "Cytotoxicity (in words)", "setting": "[10]", "value": "induced cytotoxicity in HH only"}, {"measurement": "Solubility of stock solution", "setting": "[12]", "value": "solubility problems occurred at 100 mM"}]}, {"compound": "CC(CCc1ccccc1)NCC(O)c1ccc(O)c(C(N)=O)c1", "note": "(stereo not shown) [labetalol]", "values": [{"measurement": "Cytotoxicity (in words)", "setting": "[10]", "value": "induced cytotoxicity in HH only"}]}, {"compound": "Nc1c2c(nc3ccccc13)CCCC2", "note": "[tacrine]", "values": [{"measurement": "CC50", "setting": "[7]", "value": "50 to 100", "unit": "µM"}]}, {"compound": "CC/C(=C(\\c1ccccc1)c1ccc(OCCN(C)C)cc1)c1ccccc1", "note": "[tamoxifen]", "values": [{"measurement": "CC50", "setting": "[13]", "value": "10 to 50", "unit": "µM"}, {"measurement": "CC50", "setting": "[7]", "value": "< 10", "unit": "µM"}, {"measurement": "CC50", "setting": "[14]", "value": "10 to 50", "unit": "µM"}]}]}
